# Assays:
# [1] = cited from earlier work; for Degree of Sweetness: sucrose per unit concentration Brix 1 defined as 1
# [2] = target: T1, sweet taste receptor (T1R2/T1R3) (Homo sapiens, UniProt Q7RTX0+Q8TE23); assay: Sensory evaluation of remaining sweetness intensity of sweet substances with lactisole, relative to sucrose + lactisole; details: 100 ppm lactisole; solution 15-1 (12 w/v % sucrose + 100 ppm lactisole) = 100%; n=4
# T1 sequence (Q8TE23 20-839): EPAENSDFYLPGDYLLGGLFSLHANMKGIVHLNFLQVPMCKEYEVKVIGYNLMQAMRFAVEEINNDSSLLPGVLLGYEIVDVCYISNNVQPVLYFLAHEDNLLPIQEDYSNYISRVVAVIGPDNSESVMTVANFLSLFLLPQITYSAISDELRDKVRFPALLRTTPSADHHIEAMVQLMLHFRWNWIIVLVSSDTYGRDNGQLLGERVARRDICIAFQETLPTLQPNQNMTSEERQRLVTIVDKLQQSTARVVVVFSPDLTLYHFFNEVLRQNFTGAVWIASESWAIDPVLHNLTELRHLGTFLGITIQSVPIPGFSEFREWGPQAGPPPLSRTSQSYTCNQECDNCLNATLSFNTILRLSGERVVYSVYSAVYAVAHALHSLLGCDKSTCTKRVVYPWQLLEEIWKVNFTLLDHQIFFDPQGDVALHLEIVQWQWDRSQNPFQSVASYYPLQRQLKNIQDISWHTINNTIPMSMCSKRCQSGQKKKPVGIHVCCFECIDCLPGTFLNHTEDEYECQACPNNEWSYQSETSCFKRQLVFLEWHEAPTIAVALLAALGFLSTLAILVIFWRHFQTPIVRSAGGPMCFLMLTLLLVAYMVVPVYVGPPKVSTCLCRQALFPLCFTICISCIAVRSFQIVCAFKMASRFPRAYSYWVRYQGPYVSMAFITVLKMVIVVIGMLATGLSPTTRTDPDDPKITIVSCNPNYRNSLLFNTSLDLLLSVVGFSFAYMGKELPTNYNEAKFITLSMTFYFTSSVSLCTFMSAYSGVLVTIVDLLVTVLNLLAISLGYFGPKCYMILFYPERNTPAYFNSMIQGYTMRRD
# T1 sequence (Q7RTX0 21-852): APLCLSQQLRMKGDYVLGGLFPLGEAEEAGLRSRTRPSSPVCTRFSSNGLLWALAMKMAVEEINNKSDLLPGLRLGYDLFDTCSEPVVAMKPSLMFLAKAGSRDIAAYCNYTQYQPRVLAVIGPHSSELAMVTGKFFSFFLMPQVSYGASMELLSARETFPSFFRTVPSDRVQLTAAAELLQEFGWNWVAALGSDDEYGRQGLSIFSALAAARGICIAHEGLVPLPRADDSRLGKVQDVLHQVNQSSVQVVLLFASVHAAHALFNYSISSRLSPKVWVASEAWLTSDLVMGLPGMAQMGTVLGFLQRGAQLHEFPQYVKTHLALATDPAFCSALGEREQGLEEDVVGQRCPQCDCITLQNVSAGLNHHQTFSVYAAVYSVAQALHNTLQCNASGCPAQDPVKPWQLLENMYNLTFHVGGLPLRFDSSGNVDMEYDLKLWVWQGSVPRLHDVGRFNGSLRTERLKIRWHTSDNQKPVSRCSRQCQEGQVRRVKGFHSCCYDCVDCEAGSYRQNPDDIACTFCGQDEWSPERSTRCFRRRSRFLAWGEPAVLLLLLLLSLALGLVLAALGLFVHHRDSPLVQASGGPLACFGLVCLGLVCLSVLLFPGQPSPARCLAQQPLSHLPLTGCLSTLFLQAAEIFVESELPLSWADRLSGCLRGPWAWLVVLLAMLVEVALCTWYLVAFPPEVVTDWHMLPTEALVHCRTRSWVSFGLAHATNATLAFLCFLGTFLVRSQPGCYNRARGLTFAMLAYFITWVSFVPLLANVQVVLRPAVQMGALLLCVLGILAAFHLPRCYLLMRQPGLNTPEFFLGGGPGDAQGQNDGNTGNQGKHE
# Description: The sweetness intensity of each sample solution was scored by using VAS scale. […] When the value was 50% or more, the substance was considered to be a sucrose-like substance, the taste of which is close to that of sucrose; and when the value was less than 50%, the substance was considered to be a substance, the taste of which is far from that of sucrose.
# Each sweet substance was blended so as to have an approximately equal degree of sweetness of 12 w/v % sucrose (corresponding to about Brix 12) while the known degree of sweetness of each sweet substance was used for calculation. […] The sweetness intensity of each sample solution was scored by using VAS scale. […] When the value was 50% or more, the substance was considered to be a sucrose-like substance, the taste of which is close to that of sucrose; and when the value was less than 50%, the substance was considered to be a substance, the taste of which is far from that of sucrose.
# D-tagatose was blended so as to have an approximately equal degree of sweetness of 12 w/v % sucrose (corresponding to about Brix 12) while the known degree of sweetness of D-tagatose was used for calculation. […] The sweetness intensity of each sample solution was scored by using VAS scale. […]
# [3] = target: T1, sweet taste receptor (T1R2/T1R3); assay: Sensory evaluation (spit test, VAS scale) of sweetness intensity with lactisole, relative to lactisole-free solution; format: in vivo; set-up: The sweet taste receptor is expressed naturally on the cell surface of each taste cell; from tissue; host or cells: tongue (taste cells) of living human panelists; spit test; details: remaining sweetness with 100 ppm lactisole expressed as sucrose solution
# Protocol: Sensory-trained persons (5 subjects) were panelists who conducted evaluation. […] Note that each sample solution was designed to have an approximately equal sweetness intensity while the sweetness intensity of sucralose was estimated to be 600 times the sweetness intensity of sucrose. […] A spit test was conducted for the sensory evaluation. […] Note that each energy (kcal/100 ml) was calculated while the energy of sucrose was set to 4 kcal/g and the energy of sucralose was set to 0 kcal/g.
# The sweetness intensity of each sample was scored by using VAS scale. The sweetness intensity of each solution was calculated as a relative value (%) while the sweetness intensity of the 12 w/v % sucrose solution was set to 100%.
Structure (SMILES),Degree of Sweetness [1],Relative sweetness intensity (%) [2] [%],sweetness level corresponding to sucrose solution [3] [w/v %],sweetness intensity relative to the sweetness intensity of sucrose ([1]; estimate used to design sample solutions) [times]
O=C[C@H](O)[C@H](O)[C@H](O)[C@H](O)CO [Allose],0.8,–,–,–
O=C(CO)[C@H](O)[C@H](O)[C@H](O)CO [D-allulose],0.7,–,–,–
O=C(CO)[C@@H](O)[C@@H](O)[C@H](O)CO [D-tagatose],0.9,≥ 50,–,–
OC[C@H]1O[C@H](O[C@H]2[C@H](O)[C@@H](O)[C@H](O)O[C@@H]2CO)[C@H](O)[C@@H](O)[C@@H]1O [Maltose],0.4,–,–,–
OC[C@H]1O[C@H](O[C@]2(CCl)O[C@H](CCl)[C@@H](O)[C@@H]2O)[C@H](O)[C@@H](O)[C@H]1Cl [sucralose],–,–,0.144,600
OC[C@H]1O[C@@](CO)(O[C@H]2O[C@H](CO)[C@@H](O)[C@H](O)[C@H]2O)[C@@H](O)[C@@H]1O [sucrose],1,–,2.0,–

# Source: patent US20210084950A1, “SWEETENING COMPOSITION INDUCING SWEETNESS RESPONSE THROUGH MOLECULE OTHER THAN SWEET TASTE RECEPTOR (T1R2/T1R3)” (SUNTORY HOLDINGS LIMITED, priority 2018, published 2021)
